From patent EP0549433A1, “Use of N'-substituted N-phenylsulfonylureas in the treatment of hypertension in insulin-resistant patients” (ADIR ET COMPAGNIE, priority 1991, dated 1993)

Tested on: rat âgé
Test: Chronic treatment of the aged rat: arterial blood pressure
Assay type: in vivo
Conditions: young rat (3 months per Tableau 1); 0,1 à 1 mg /kg par jour for 2 weeks
Procedure: Etude du traitement chronique du rat âgé
Au cours du vieillissement, une insulino-résistance apparaît, accompagnée d'une hyperinsulinémie et d'une élévation de la pression artérielle (cf tableau 1 ci-après).
A titre d'exemple, le traitement par le gliclazide à la dose de 0,1 à 1 mg /kg par jour pendant 2 semaines, diminue la pression artérielle du rat âgé de 9.10² à 11.10² Pa sans modifier celle du rat jeune.

With `Cc1ccc(S(=O)(=O)NC(=O)NN2CC3CCCC3C2)cc1` (stereo not shown) [gliclazide] the “pression artérielle du rat jeune” value was “sans modifier”.
